Data taken from patent US20040235855A1, “Phospholipase C inhibitors for use in treating inflammatory disorders” (priority 2003, published 2004).

Key:
PMA-induced ear edema [1] = assay: Acute PMA-induced ear edema mouse model; format: in vivo
Description: The acute PMA-induced ear edema mouse model was used to test compounds of the present […] (as described in Carlson R P, O'Neill-Davis L, Chang J. and Lewis A J, Modulation of Mouse Ear Edema by Cyclooxygenase and Lipoxygenase Inhibitors and Other Pharmacologic Agents, Agents and Actions, 1985, 17:197-204).

human PLC-β2 = target: T1, human PLC-β2 (Homo sapiens, UniProt Q00722); assay: PLC assay using FlashPlates (96-well, immobilized [3H]PIP2 substrate); format: biochemical; conditions: purified recombinant human PLC-β2 or cytosolic human PLC-β2; hydrolysis of [3H]PIP2
T1 construct: made in house; host or cells: Sf9 cells (Spodoptera frugiperda), recombinant baculovirus
T1 sequence (Q00722 whole entry): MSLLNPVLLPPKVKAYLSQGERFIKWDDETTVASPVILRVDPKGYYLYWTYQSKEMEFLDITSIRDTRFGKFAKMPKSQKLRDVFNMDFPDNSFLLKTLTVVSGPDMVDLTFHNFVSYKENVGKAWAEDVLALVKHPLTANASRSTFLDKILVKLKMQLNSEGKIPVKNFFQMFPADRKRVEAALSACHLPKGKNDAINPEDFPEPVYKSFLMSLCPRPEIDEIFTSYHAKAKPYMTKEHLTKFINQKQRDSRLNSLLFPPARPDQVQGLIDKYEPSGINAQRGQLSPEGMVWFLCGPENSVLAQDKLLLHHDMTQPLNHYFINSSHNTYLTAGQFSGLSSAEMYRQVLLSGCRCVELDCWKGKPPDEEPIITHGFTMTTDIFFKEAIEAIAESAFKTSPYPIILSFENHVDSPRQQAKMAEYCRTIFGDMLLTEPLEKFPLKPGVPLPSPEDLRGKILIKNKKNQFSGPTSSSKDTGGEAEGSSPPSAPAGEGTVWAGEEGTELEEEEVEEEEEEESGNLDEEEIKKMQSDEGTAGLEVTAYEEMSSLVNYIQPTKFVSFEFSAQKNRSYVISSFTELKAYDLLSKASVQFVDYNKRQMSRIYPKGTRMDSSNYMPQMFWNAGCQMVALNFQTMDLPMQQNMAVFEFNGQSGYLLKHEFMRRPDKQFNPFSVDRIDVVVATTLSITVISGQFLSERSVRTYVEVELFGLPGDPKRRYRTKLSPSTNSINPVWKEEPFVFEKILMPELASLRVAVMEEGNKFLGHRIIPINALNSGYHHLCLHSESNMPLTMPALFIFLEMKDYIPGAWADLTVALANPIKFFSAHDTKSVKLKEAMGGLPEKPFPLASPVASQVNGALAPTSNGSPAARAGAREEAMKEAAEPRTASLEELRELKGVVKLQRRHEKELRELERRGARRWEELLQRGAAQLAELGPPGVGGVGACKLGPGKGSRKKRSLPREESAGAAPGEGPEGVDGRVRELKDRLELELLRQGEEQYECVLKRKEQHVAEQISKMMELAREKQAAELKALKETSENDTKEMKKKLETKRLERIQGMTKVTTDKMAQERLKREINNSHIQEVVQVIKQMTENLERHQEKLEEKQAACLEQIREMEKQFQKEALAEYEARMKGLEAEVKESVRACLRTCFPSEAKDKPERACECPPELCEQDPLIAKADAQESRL
How it was run: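 Purified recombinant human PLC-β2 (Sf9 baculovirus) or cytosolic PLC-β2 from HL-60 cells hydrolysed [3H]PIP2 immobilised on phospholipid FlashPlates. Reactions ran in 50 mM Tris/HCl pH 7.2 with EDTA, KCl, LiCl, 0.04% DOC and 2 mM CaCl2. Activity was read as loss of bound radioactivity by scintillation counting.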

PMA-induced ear edema [2] = assay: Chronic PMA-induced ear edema mouse model; format: in vivo; conditions: 0.5 mg dose applied topically
Description: The chronic PMA-induced ear edema mouse model was used to test Compound 38 (as described in Stanley P L, Steiner S, Havens M and Tramposch K M, Mouse Skin Inflammation Induced by Multiple Topical Applications of 12-O-Tetradecanoylphorbol-13-acetate, Skin Pharmacol., 1991, 4: 262-271).

[3] = tested on: adjuvant-induced arthritis; assay: Adjuvant-induced arthritis rat model; format: in vivo; conditions: administered i.p.
Description: The adjuvant-induced arthritis rat model was used to test Compound 38 (as described in Anderson G D, Hauser S D, McGarity K L, Bremer M E, Isakson P C and Gregory S A, Selective Inhibition of Cyclooxygenase (Cox)-2 Reverses Inflammation and Expression of Cox-2 and Interleukein 6 in Rat Adjuvant Arthritis, J. Clin. Invest., 1996, 97:2672-2679).

[4] = tested on: carageenan-induced paw edema; assay: Carageenan-induced paw edema rat model; format: in vivo
Description: The carageenan-induced paw edema rat model was used to test Compound 38 (as described in Vinegar R, Truax J F, Selph J L, Johnston P R, Venable A L and McKenzie K K, Pathway to Carrageenan-Induced Inflammation in the Hind Limb of the Rat, Fed. Proc., 1987, 46:118-126).

[5] = tested on: zymosan-induced peritonitis; assay: Zymosan-induced peritonitis mouse model; format: in vivo; conditions: 30 mpk dose administered i.p.
Description: The zymosan-induced peritonitis model was used to test Compound 38 (as described in Rao T S, Currie J L, Shaffer A F and Isakson P C, In vivo Characterization of Zymosan-Induced Mouse Peritoneal Inflammation, J. Pharm. Exptl. Ther., 1994, 269: 917-925).

IC50 (human PLC-β2) [µM]	Structure (SMILES)	further results
1.9	NC(=O)c1ccc(N2CCN(C3c4ccccc4-c4ccccc43)CC2)c(NC(=O)Nc2ccccc2)c1 [Cpd 9, 4-[4-(9H-fluoren-9-yl)-1-piperazinyl]-3-[[(phenylamino)carbonyl]amino]-benzamide]	% Inhibition (PMA-induced ear edema [1]; 5 mpk i.v.): 44%; % Inhibition (PMA-induced ear edema [1]; 30 mpk i.p.): 52%; % Inhibition (PMA-induced ear edema [1]; 30 mpk p.o.): 44%
2.3	NC(=O)c1ccc(N2CCN(C(c3ccc(F)cc3)c3ccc(F)cc3)CC2)c(NC(=S)NCc2ccccc2)c1 [Cpd 21, 4-[4-[bis(4-fluorophenyl)methyl]-1-piperazinyl]-3-[[[(phenylmethyl)amino]thioxomethyl]amino]-benzamide]	% Inhibition (PMA-induced ear edema [1]; 5 mpk i.v.): 56%; % Inhibition (PMA-induced ear edema [1]; 30 mpk i.p.): 83%; % Inhibition (PMA-induced ear edema [1]; 30 mpk p.o.): 31%
2.2	O=C(Nc1cc(C(=O)N2CCNCC2)ccc1N1CCN(C(c2ccccc2)c2ccccc2)CC1)NC1CCCCC1 [Cpd 38, N-cyclohexyl-N′-[2-[4-(diphenylmethyl)-1-piperazinyl]-5-(1-piperazinylcarbonyl)phenyl]-urea]	inhibition (PMA-induced ear edema [2]): 53%; inhibition in paws [3]: significant inhibition in both paws; % Inhibition (PMA-induced ear edema [1]; 5 mpk i.v.): 47%; % Inhibition (PMA-induced ear edema [1]; 30 mpk i.p.): 84%; % Inhibition (PMA-induced ear edema [1]; 30 mpk p.o.): 0%; inhibition ([4]; 30 mpk dose administered i.p.): 80%; inhibition ([4]; 30 mpk dose administered s.c.): 60%; inhibition [5]: about 45%
1.6	O=C(Nc1ccccc1)Nc1cc(C(=O)N2CCNCC2)ccc1N1CCN(C(c2ccccc2)c2ccccc2)CC1 [Cpd 40, N-[2-[4-(diphenylmethyl)-1-piperazinyl]-5-(1-piperazinylcarbonyl)phenyl]-N′-phenylurea]	% Inhibition (PMA-induced ear edema [1]; 5 mpk i.v.): 44%; % Inhibition (PMA-induced ear edema [1]; 30 mpk i.p.): 81%; % Inhibition (PMA-induced ear edema [1]; 30 mpk p.o.): 9%
> 25	C[C@H](NC(=O)Nc1cc(C(=O)N2CCNCC2)ccc1N1CCN(C(c2ccccc2)c2ccccc2)CC1)c1ccccc1 [Cpd 64, N-[2-[4-(diphenylmethyl)-1-piperazinyl]-5-(1-piperazinylcarbonyl)phenyl]-N′-[(1S)-1-phenylethyl]-urea]	
6.2	O=C(c1ccc(N2CCN(C(c3ccccc3)c3ccccc3)CC2)c(NC(=S)NCc2ccccc2)c1)N1CCNCC1 [Cpd 65, N-[2-[4-(diphenylmethyl)-1-piperazinyl]-5-(1-piperazinylcarbonyl)phenyl]-N′-(phenylmethyl)thiourea]	
> 25	CC(C)NC(=O)Nc1cc(C(=O)N2CCNCC2)ccc1N1CCN(C(c2ccccc2)c2ccccc2)CC1 [Cpd 66, N-[2-[4-(diphenylmethyl)-1-piperazinyl]-5-(1-piperazinylcarbonyl)phenyl]-N′-(1-methylethyl)urea]	
3.4	O=C(NC(=S)Nc1cc(C(=O)N2CCNCC2)ccc1N1CCN(C(c2ccccc2)c2ccccc2)CC1)c1ccc(Cl)cc1 [Cpd 67, N-(4-chlorobenzoyl)-N′-[2-[4-(diphenylmethyl)-1-piperazinyl]-5-(1-piperazinylcarbonyl)phenyl]-thiourea]	
~10	NC(=O)c1ccc(N2CCN(C(c3ccncc3)c3ccc(F)cc3)CC2)c(NC(=O)Nc2ccccc2)c1 (stereo not drawn) [Cpd 77, 4-[4-[(4-fluorophenyl)-4-pyridinylmethyl]-1-piperazinyl]-3-[[(phenylamino)carbonyl]amino]-benzamide]	
> 10	NC(=O)c1ccc(N2CCN(C(c3ccncc3)c3ccc(F)cc3)CC2)c(NC(=O)NC2CCCCC2)c1 (stereo not drawn) [Cpd 78]	
> 10	NC(=O)c1ccc(N2CCCN(C(c3ccncc3)c3ccc(F)cc3)CC2)c(NC(=O)Nc2ccccc2)c1 (stereo not drawn) [Cpd 79, 4-[4-[(4-fluorophenyl)-4-pyridinylmethyl]hexahydro-1H-1,4-diazepin-1-yl]-3-[[(phenylamino)carbonyl]amino]-benzamide]	
> 10	NC(=O)c1ccc(N2CCCN(C(c3ccncc3)c3ccc(F)cc3)CC2)c(NC(=O)NC2CCCCC2)c1 (stereo not drawn) [Cpd 80, 3-[[(cyclohexylamino)carbonyl]amino]-4-[4-[(4-fluorophenyl)-4-pyridinylmethyl]hexahydro-1H-1,4-diazepin-1-yl]-benzamide]	
~10	NC(=O)c1ccc(N2CCCN(C(c3ccc(F)cc3)c3ccc(F)cc3)CC2)c(NC(=O)Nc2ccccc2)c1 [Cpd 81, 4-[4-[bis(4-fluorophenyl)methyl]hexahydro-1H-1,4-diazepin-1-yl]-3-[[(phenylamino)carbonyl]amino]-benzamide]	
~10	NC(=O)c1ccc(N2CCCN(C(c3ccc(F)cc3)c3ccc(F)cc3)CC2)c(NC(=O)NC2CCCCC2)c1 [Cpd 82, 4-[4-[bis(4-fluorophenyl)methyl]hexahydro-1H-1,4-diazepin-1-yl]-3-[[(cyclohexylamino)carbonyl]amino]-benzamide]	
0.81	O=C(Nc1ccccc1)Nc1ccc(C(=O)N2CCNCC2)cc1N1CCCN(C(c2ccc(F)cc2)c2ccc(F)cc2)CC1 [Cpd 89, N-[2-[4-[bis(4-fluorophenyl)methyl]hexahydro-1H-1,4-diazepin-1-yl]-4-(1-piperazinylcarbonyl)phenyl]-N′-phenyl-urea]	
0.98	O=C(Nc1ccccc1)Nc1ccc(C(=O)N2CCNCC2)cc1N1CCN(C(c2ccc(F)cc2)c2ccc(F)cc2)CC1 [Cpd 90, N-[2-[4-[bis(4-fluorophenyl)methyl]-1-piperazinyl]-4-(1-piperazinylcarbonyl)phenyl]-N′-phenyl-urea]	
1.3	O=C(Nc1ccccc1)Nc1ccc(C(=O)N2CCNCC2)cc1N1CCN(C(c2ccccc2)c2ccccc2)CC1 [Cpd 91, N-[2-[4-(diphenylmethyl)-1-piperazinyl]-4-(1-piperazinylcarbonyl)phenyl]-N′-phenyl-urea]	
1.6	O=C(Nc1ccc(C(=O)N2CCNCC2)cc1N1CCN(C(c2ccccc2)c2ccccc2)CC1)NC1CCCCC1 [Cpd 92, N-cyclohexyl-N′-[2-[4-(diphenylmethyl)-1-piperazinyl]-4-(1-piperazinylcarbonyl)phenyl]-urea]	
1.8	NC(=O)c1ccc(NC(=O)Nc2ccccc2)c(N2CCN(C(c3ccccc3)c3ccccc3)CC2)c1 [Cpd 93, 3-[4-(diphenylmethyl)-1-piperazinyl]-4-[[(phenylamino)carbonyl]amino]-benzamide]	
